Consider six compounds from patent publication US5210089A, “D-rhamnono-1,5-lactone” (Monsanto Company, priority 1992, dated 1993).

In one assay the test system is human liver mannosidases. The following applies: literature; cited from earlier work.
The next assay has as its target T1, Lysosomal α-mannosidase (Homo sapiens, UniProt O00754).
T1 sequence (O00754 50-1011): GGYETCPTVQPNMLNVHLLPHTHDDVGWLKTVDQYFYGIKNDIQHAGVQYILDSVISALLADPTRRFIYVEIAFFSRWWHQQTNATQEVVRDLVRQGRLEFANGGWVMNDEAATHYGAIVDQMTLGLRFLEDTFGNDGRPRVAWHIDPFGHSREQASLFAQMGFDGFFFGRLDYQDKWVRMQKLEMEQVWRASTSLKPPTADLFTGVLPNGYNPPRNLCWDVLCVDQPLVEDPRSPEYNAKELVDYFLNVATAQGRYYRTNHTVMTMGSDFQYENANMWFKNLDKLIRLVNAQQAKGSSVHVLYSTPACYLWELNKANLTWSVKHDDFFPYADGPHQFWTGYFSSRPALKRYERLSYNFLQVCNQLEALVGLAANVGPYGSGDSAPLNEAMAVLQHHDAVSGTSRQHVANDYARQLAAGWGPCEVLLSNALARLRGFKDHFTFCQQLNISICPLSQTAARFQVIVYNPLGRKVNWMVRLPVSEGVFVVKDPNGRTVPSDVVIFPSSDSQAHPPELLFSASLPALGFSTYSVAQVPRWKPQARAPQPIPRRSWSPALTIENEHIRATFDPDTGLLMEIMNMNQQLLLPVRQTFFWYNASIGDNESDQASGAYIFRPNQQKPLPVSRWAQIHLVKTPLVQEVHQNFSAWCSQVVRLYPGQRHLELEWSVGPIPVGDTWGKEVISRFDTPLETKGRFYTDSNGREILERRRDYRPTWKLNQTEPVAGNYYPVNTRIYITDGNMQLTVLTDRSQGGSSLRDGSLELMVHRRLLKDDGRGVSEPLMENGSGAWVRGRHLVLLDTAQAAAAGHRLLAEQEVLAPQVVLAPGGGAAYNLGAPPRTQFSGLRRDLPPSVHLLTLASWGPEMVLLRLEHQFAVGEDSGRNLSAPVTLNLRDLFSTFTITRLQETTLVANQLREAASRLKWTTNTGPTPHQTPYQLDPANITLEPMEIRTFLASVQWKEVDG
The experiment in a line: Human liver glycosidase assay, lysosomal α-mannosidase. The conditions noted are these: for inhibition at 1000 µM: 1 mM compound, 4-methylumbelliferyl-glycoside substrate. In kind it is biochemical. Also on record: human liver extracts; from tissue; host or cells: human liver extracts. The procedure: (§1) Melting points were recorded on a Kofler hot block. Proton nuclear magnetic resonance (δH) spectra were recorded on Varian Gemini 200 (at 200 MHz), Bruker WH 300 (300 MHz), or Bruker AM 500 (500 MHz) spectrometers. Carbon nuclear magnetic resonance (δC) spectra were recorded on a Varian Gemini 200 (50 MHz) or a Bruker 250 (62.9 MHz) spectrometer. Multiplicities were assigned using DEPT sequence on the Gemini and by off resonance decoupling on the Bruker. Spectra run in D2 O were referenced to methanol as an internal standard. All chemical shifts are quoted on the δ-scale. Infrared spectra were recorded on a Perkin-Elmer 297, or on a Perkin-Elmer 781 spectrophotometer. Mass spectra were recorded on VG Micromass 30F, ZAB lF, Masslab 20-250 or Trio-1 GCMS (DB-5 column) spectrometers using desorption chemical ionization (NH3 DCI), electron impact (EI), chemical ionization (NH3 CI) and fast atom bombardment (FAB) techniques, as stated. […] Concentrations were given in g/100 ml. Hydrogenations were run under an atmosphere of hydrogen gas maintained by inflated balloon. Microanalyses were performed by the microanalysis service of the DysonPerrins laboratory, Oxford UK. Thin layer chromatography (t.l.c.) was carried out on aluminum sheets coated with 60F254 silica. Plates were developed using either 5% v/v concentrated sulphuric acid in methanol, 0.2% w/v cerium (IV) sulphate and 5% ammonium molybdate in 2M sulphuric acid and 0.5% ninhydrin in methanol. Flash chromatography was carried out using Sorbsil C60 40/60 silica. Ion-exchange chromatography was performed using Dowex 50W-X8 (H) and Sigma CG 400 (Cl) resins. The resins were washed with 2M hydrochloric acid and 2M sodium hydroxide solution, respectively, and subsequently with distilled water, prior to use. Solvents and commercially available reagents were dried and purified before use according to standard procedures; dichloromethane was refluxed over and distilled from calcium hydride, N,N-dimethylformamide was distilled under reduced pressure from calcium hydride, methanol was distilled from magnesium methoxide, pyridine was distilled from, and stored over, potassium hydroxide and tetrahydrofuran was distilled from a purple solution of sodium benzophenone ketyl immediately before use. Hexane was distilled at 68° C. before use to remove involatile fractions. 2,3-O-Isopropylidene-L-gulono-1,4-lactone (9) [H. Ogura et al., J. Oro. Chem. 37, 72 (1972); G. W. J. Fleet Tetrahedron 45, 319 (1989)]and 2,3-O-isopropylidene-D-gulono-1,4-lactone (15) [L. M. Lerner et al., J. Org. Chem. 33, 1780 (1968)]were prepared from D- and L-Chem. gulonolactones [purchased from the Sigma Chemical Company] as reported previously. See, e.g., Fleet, U.S. Pat. No. 4,861,892. Human liver glycosidases were assayed in the absence and presence [1 mM] of each of the compounds using the appropriate buffered 4-methylumbellifeeryl-glycosides as substrates, as described previously. [B. Winchest et al., Biochem. J. 265, 277 (1990)]. Naringinase was assayed using pnitrophenyl α-L-rhamnoside (1.75 mM) as substrates, according to Romero [C. Romero et al., Anal. Biochem. 149, 566 (1985)].
(§2) The enzymes included human liver glycosidases and naringinase. The latter enzyme is a readily available endo-L-rhamnosidase described by Romero et al., Anal. Biochem. 149, 566 (1985).

The next assay deals with T2, Lysosomal α-fucosidase (Homo sapiens, UniProt P04066).
T2 construct: human liver extracts; from tissue; host or cells: human liver extracts
T2 sequence (P04066 32-466): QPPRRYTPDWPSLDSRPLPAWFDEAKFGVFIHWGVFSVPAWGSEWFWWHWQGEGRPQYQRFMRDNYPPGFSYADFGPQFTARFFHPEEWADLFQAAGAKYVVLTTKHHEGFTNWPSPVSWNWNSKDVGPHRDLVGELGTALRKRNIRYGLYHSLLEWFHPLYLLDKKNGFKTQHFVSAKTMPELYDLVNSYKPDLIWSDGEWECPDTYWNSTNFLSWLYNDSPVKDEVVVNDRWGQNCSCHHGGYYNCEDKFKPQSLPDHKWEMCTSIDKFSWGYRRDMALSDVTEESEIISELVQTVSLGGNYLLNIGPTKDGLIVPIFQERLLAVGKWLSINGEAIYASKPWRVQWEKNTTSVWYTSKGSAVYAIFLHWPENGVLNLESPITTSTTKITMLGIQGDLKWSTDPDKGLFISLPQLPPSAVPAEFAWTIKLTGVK
The experiment in a line: Human liver glycosidase assay, lysosomal α-fucosidase. In kind it is biochemical. The conditions noted are these: read-out: Inhibition (%) at 1 mM, lysosomal α-fucosidase. The procedure:
as §1, §2

The next assay concerns α-arabinosidase. The experiment in a line: Human liver glycosidase assay, α-arabinosidase. In kind it is biochemical. The following applies: 1 mM compound. The procedure:
(§3) Melting points were recorded on a Kofler hot block. Proton nuclear magnetic resonance (δH) spectra were recorded on Varian Gemini 200 (at 200 MHz), Bruker WH 300 (300 MHz), or Bruker AM 500 (500 MHz) spectrometers. Carbon nuclear magnetic resonance (δC) spectra were recorded on a Varian Gemini 200 (50 MHz) or a Bruker 250 (62.9 MHz) spectrometer. Multiplicities were assigned using DEPT sequence on the Gemini and by off resonance decoupling on the Bruker. Spectra run in D2 O were referenced to methanol as an internal standard. All chemical shifts are quoted on the δ-scale. Infrared spectra were recorded on a Perkin-Elmer 297, or on a Perkin-Elmer 781 spectrophotometer. Mass spectra were recorded on VG Micromass 30F, ZAB lF, Masslab 20-250 or Trio-1 GCMS (DB-5 column) spectrometers using desorption chemical ionization (NH3 DCI), electron impact (EI), chemical ionization (NH3 CI) and fast atom bombardment (FAB) techniques, as stated. […] Concentrations were given in g/100 ml. Hydrogenations were run under an atmosphere of hydrogen gas maintained by inflated balloon. Microanalyses were performed by the microanalysis service of the DysonPerrins laboratory, Oxford UK. […]
as §2

For assay [1], the system named is glycoprotein processing mannosidase I. The conditions noted are these: literature; cited from earlier work.
Another assay has as its system mannosidases. The conditions noted are these: literature; cited from earlier work.
Assay [2] concerns α-rhamnosidase (naringinase). The assay is described as follows: Naringinase assay with p-nitrophenyl α-L-rhamnoside. In kind it is biochemical. The conditions noted are these: 1 mM compound; p-nitrophenyl α-L-rhamnoside 1.75 mM. On the procedure: as §1, §2
The test system of assay [3] is N-acetyl-β-D-hexosaminidase. The assay is described as follows: Human liver glycosidase assay, N-acetyl-β-D-hexosaminidase. Format: biochemical. The conditions noted are these: 1 mM compound. On the procedure:
as §3, §2

The next assay addresses T3, bovine α-L-fucosidase (Bos taurus, UniProt Q2KIM0).
T3 sequence (Q2KIM0 23-468): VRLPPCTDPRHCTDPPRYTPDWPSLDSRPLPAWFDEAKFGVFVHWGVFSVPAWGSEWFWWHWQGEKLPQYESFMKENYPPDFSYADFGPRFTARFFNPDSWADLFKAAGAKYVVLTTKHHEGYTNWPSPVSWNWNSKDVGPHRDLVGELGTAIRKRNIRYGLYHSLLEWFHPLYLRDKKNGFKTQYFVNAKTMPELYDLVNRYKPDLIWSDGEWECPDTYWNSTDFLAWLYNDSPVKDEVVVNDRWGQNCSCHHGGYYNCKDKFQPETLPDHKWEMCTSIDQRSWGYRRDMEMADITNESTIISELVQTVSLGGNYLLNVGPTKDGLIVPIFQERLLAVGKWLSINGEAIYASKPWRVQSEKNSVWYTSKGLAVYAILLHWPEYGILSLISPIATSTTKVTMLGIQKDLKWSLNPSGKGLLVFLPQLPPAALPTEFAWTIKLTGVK
The conditions noted are these: literature; cited from earlier work.

The target of another assay is T4, β-mannosidase (Homo sapiens, UniProt O00462).
T4 sequence (O00462 18-879): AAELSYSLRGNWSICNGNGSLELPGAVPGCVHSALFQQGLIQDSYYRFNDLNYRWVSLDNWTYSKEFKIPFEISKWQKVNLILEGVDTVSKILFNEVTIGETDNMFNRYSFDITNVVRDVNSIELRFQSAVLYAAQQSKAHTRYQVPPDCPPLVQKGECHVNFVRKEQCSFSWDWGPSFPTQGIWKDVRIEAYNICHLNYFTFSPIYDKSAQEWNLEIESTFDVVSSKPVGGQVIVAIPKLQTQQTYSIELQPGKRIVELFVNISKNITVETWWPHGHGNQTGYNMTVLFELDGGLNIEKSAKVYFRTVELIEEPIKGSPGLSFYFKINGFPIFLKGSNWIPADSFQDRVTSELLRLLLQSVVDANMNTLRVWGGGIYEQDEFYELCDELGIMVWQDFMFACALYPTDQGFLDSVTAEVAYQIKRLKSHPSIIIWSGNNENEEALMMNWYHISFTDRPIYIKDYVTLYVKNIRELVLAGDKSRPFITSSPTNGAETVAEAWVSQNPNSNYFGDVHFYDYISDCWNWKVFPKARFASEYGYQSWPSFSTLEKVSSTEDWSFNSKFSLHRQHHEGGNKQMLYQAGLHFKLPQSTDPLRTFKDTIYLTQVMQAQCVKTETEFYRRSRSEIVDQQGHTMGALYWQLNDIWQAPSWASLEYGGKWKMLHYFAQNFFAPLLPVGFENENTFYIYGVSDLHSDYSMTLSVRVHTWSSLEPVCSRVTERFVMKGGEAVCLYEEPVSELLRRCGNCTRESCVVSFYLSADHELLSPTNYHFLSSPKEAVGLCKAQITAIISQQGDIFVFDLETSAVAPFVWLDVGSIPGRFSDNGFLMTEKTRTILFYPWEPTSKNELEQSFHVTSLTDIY
The following applies: literature; cited from earlier work.

The mark [4] stands for this setting: human liver, read-out: Ki, lysosomal α-mannosidase.

Where a name gives a salt, the structure may show the parent alone. Read-outs that look alike come from different tables or passages of the source.

For `C[C@@H](O)[C@H]1NC[C@@H](O)[C@H]1O` [1,4-dideoxy-1,4-imino-6-deoxy-mannitol], in the assay with human liver mannosidases, the “Inhibition of human liver mannosidases (in words)” value is on record as “excellent inhibitor”. Further, the inhibition (in general, the drop in the measured response relative to a control, in per cent) at 1000 µM turned out to be 100% on Lysosomal α-mannosidase (human liver) and 21% at Lysosomal α-fucosidase (1 mM compound, human liver). The Ki (in general, the dissociation constant of the complex between target and ligand, obtained from inhibition or displacement) at Lysosomal α-mannosidase (setting [4]) worked out at 1.3 µM. In addition, in the assay on α-arabinosidase, the “Inhibition (%) at 1 mM, α-arabinosidase” value was found to be 91%.
For the compound `OC[C@@H](O)[C@H]1NC[C@@H](O)[C@H]1O` [1,4-dideoxy-1,4-iminomannitol (3), 1,4-dideoxy-1,4-iminomannitol], the “Inhibition of glycoprotein processing mannosidase (in words)” value in assay [1] is “strong”. The inhibition at 1000 µM against Lysosomal α-mannosidase (human liver) stood at 89%; at Lysosomal α-fucosidase (1 mM compound, human liver), 24%. Further, the Ki on Lysosomal α-mannosidase (setting [4]) amounted to 13 µM. Moreover, in the assay with α-arabinosidase, the “Inhibition (%) at 1 mM, α-arabinosidase” value is 66%. Also, the “Inhibition of many mannosidases (in words)” value with mannosidases was “strong”.
In the case of `C[C@H]1NC[C@@H](O)[C@@H](O)[C@@H]1O` [D-Rhamnojirimycin (5), 1,5-amino-1,5,6-trideoxy-D-mannitol hydrochloride], in [2], the “Inhibition (%) at 1 mM, α-rhamnosidase (naringinase)” value turned out to be 10%. In addition, the inhibition at 1000 µM on Lysosomal α-mannosidase (human liver) turned out to be 55%. On Lysosomal α-mannosidase (human liver, read-out: I50, lysosomal α-mannosidase), the IC50 turned out to be 1000 µM.
On to `OC[C@H]1NC[C@@H](O)[C@@H](O)[C@@H]1O` [DMJ (1), deoxymannojirimycin], for which the “Inhibition (%) at 1 mM, N-acetyl-β-D-hexosaminidase” value in assay [3] was found to be 54%. Further, the “Inhibition of glycoprotein processing mannosidase (in words)” value in assay [1] is “potent inhibitor”. For the same compound, at Lysosomal α-mannosidase, the affinity, expressed as Ki, was 750 µM. Moreover, on bovine α-L-fucosidase, the “Inhibition of bovine α-L-fucosidase (in words)” value is on record as “potent inhibitor”. At Lysosomal α-fucosidase, the inhibition at 1000 µM is 92%.
For the compound `C[C@@H]1NC[C@H](O)[C@H](O)[C@H]1O` [L-Rhamnojirimycin (7), 1,5-Imino-1,5,6-trieoxy-L-mannitoI hydrochIoride], in assay [2], the “Inhibition (%) at 1 mM, α-rhamnosidase (naringinase)” value is given as 0%. The same compound came in with an inhibition at 1000 µM on Lysosomal α-mannosidase (human liver) of 19%.
For `O[C@H]1[C@H]2[C@H](O)CCCN2C[C@H]1O` [swainsonine], the “Inhibition of β-mannosidase (in words)” value on β-mannosidase is on record as “fail to inhibit”.
